Results reported in ChEMBL document CHEMBL5346862, “Discovery of the thieno[2,3-d]pyrimidine-2,4-dione derivative 21a: A potent and orally bioavailable gonadotropin-releasing hormone receptor antagonist” (Eur J Med Chem, 2022).

How the values were obtained:
[1] = Cmax in Sprague-Dawley rat at 1 mg/kg, iv measured for 24 hrs by LC/MS analysis; format: ADME, organism-based; set-up: time 24 hrs, dose 1 mg/kg, route iv; conditions: in vivo
[2] = Apparent permeability across basolateral to apical side in human Caco-2 cells incubated for 180 mins by LC/MS/MS analysis; format: ADME, cell-based; conditions: for Papp B→A at 3 h: Caco-2
[3] = Half-life in Sprague-Dawley rat at 12 mg/kg, po measured for 24 hrs by LC/MS analysis; format: ADME, organism-based; conditions: in vivo
[4] = Half-life in Sprague-Dawley rat at 1 mg/kg, iv measured for 24 hrs by LC/MS analysis; format: ADME, organism-based; conditions: in vivo
[5] = Apparent permeability across apical to basolateral side in human Caco-2 cells incubated for 180 mins by LC/MS/MS analysis; format: ADME, cell-based; conditions: for Papp A→B at 3 h: Caco-2
[6] = Cmax in Sprague-Dawley rat at 12 mg/kg, po measured for 24 hrs by LC/MS analysis; format: ADME, organism-based; set-up: dose 12 mg/kg, time 24 hrs, route po; conditions: in vivo
[7] = Intrinsic clearance in human liver microsomes incubated for 15 mins in presence of NADPH by LC-MS analysis; format: ADME, Microsome; conditions: read-out: CLH
[8] = AUC(last) in Sprague-Dawley rat at 1 mg/kg, iv measured for 24 hrs by LC/MS analysis; format: ADME, organism-based; set-up: dose 1 mg/kg, time 24 hrs, route iv; conditions: in vivo
[9] = Tmax in Sprague-Dawley rat at 12 mg/kg, po measured for 24 hrs by LC/MS analysis; format: ADME, organism-based; conditions: in vivo
[10] = Intrinsic clearance in rat liver microsomes incubated for 15 mins in presence of NADPH by LC-MS analysis; format: ADME, Microsome; conditions: read-out: CLH
[11] = Oral bioavailability in Sprague-Dawley rat at 12 mg/kg measured for 24 hrs by LC/MS analysis; format: ADME, organism-based; conditions: in vivo
[12] = AUC(last) in Sprague-Dawley rat at 12 mg/kg, po measured for 24 hrs by LC/MS analysis; format: ADME, organism-based; set-up: time 24 hrs, dose 12 mg/kg, route po; conditions: in vivo
[13] = Clearance in Sprague-Dawley rat at 1 mg/kg, iv measured for 24 hrs by LC/MS analysis; format: ADME, organism-based; conditions: in vivo
[14] = Lipophilicity, log D of the compound at pH 7.4; format: physicochemical; conditions: buffer
[15] = Drug uptake in Sprague-Dawley rat heart at 12 mg/kg, po measured after 1 hr by LC-MS/MS analysis; format: ADME, organism-based; conditions: read-out: Drug uptake
[16] = Drug uptake in Sprague-Dawley rat hypothalamus and pituitary at 12 mg/kg, po measured after 1 hr by LC-MS/MS analysis; format: ADME, organism-based, Hypothalamus/Pituitary gland; conditions: read-out: Drug uptake
[17] = Drug uptake in Sprague-Dawley rat hypothalamus and pituitary at 12 mg/kg, po measured after 12 hrs by LC-MS/MS analysis; format: ADME, organism-based, Hypothalamus/Pituitary gland; conditions: read-out: Drug uptake
[18] = Drug uptake in Sprague-Dawley rat hypothalamus and pituitary at 12 mg/kg, po measured after 4 hrs by LC-MS/MS analysis; format: ADME, organism-based, Hypothalamus/Pituitary gland; conditions: read-out: Drug uptake

Row | Compound | Papp B→A at 3 h [2] | Papp A→B at 3 h [5] | CLint scaled at […] [7] | CLint scaled at […] [10] | also measured
1 | COCCN(C)Cc1c(-c2ccc(NC(=O)NOC)cc2)sc2c1c(=O)n(-c1ccc(OC)nn1)c(=O)n2Cc1c(F)cccc1F | 42.2 ×10⁻⁶ cm/s | 0.031 ×10⁻⁶ cm/s | < 6.75 mL/min/kg | 15.8 mL/min/kg | Cmax [1]: 1230 nM; half-life [3]: 4.33 h; half-life [4]: 2.6 h; Cmax [6]: 329 nM; AUC(0-t) at 24 h [8]: 0.689 µM·h; Tmax [9]: 0.31 h; bioavailability [11]: 10.9%; AUC(0-t) at 24 h [12]: 0.904 µM·h; clearance [13]: 38.7 mL/min/kg
2 | CONC(=O)Nc1ccc(-c2sc3c(c2CN(C)C)c(=O)n(-c2ccc(OC(F)F)nn2)c(=O)n3Cc2c(F)cccc2F)cc1 | 15.1 ×10⁻⁶ cm/s | 0.019 ×10⁻⁶ cm/s | < 6.75 mL/min/kg | 16.6 mL/min/kg | 
3 | CNc1ccc(-n2c(=O)c3c(CN(C)C)c(-c4ccc(NC(=O)NOC)cc4)sc3n(Cc3c(F)cccc3F)c2=O)nn1 | 0.5 ×10⁻⁶ cm/s | 0.05 ×10⁻⁶ cm/s | < 6.75 mL/min/kg | 34.9 mL/min/kg | 
4 | COc1ccc(-n2c(=O)c3c(CN(C)C)c(-c4ccc(NC(=O)NOCC(F)F)cc4)sc3n(Cc3c(F)cccc3F)c2=O)nn1 | 15.7 ×10⁻⁶ cm/s | 0.01 ×10⁻⁶ cm/s | 7.38 mL/min/kg | 45.4 mL/min/kg | 
5 | CONC(=O)Nc1ccc(-c2sc3c(c2CN(C)C)c(=O)n(-c2cccc(OC)c2F)c(=O)n3Cc2c(F)cccc2F)cc1 | 21.1 ×10⁻⁶ cm/s | 0.051 ×10⁻⁶ cm/s | 52 mL/min/kg | 211 mL/min/kg | 
6 | CONC(=O)Nc1ccc(-c2sc3c(c2CN(C)CCOC(F)(F)F)c(=O)n(-c2ccc(OC)nn2)c(=O)n3Cc2c(F)cccc2F)cc1 |  | 0.984 ×10⁻⁶ cm/s | 14.2 mL/min/kg | 37.1 mL/min/kg | Cmax [1]: 3920 nM; half-life [3]: 4.86 h; half-life [4]: 2.79 h; Cmax [6]: 920 nM; AUC(0-t) at 24 h [8]: 1.37 µM·h; Tmax [9]: 1.13 h; bioavailability [11]: 44.7%; AUC(0-t) at 24 h [12]: 7.37 µM·h; clearance [13]: 17.5 mL/min/kg
7 | CONC(=O)Nc1ccc(-c2sc3c(c2CN(C)C)c(=O)n(-c2ccc(OC)nn2)c(=O)n3Cc2c(F)cccc2C(F)(F)F)cc1 | 4.58 ×10⁻⁶ cm/s | 0.011 ×10⁻⁶ cm/s | < 6.75 mL/min/kg | < 13.5 mL/min/kg | 
8 | COc1ccc(-n2c(=O)c3c(CN(C)C)c(-c4ccc(NC(=O)NOCC(F)(F)F)cc4)sc3n(Cc3c(F)cccc3F)c2=O)nn1 | 17.2 ×10⁻⁶ cm/s | 0.009 ×10⁻⁶ cm/s | < 6.75 mL/min/kg | 38.9 mL/min/kg | 
9 | CCc1ccc(-n2c(=O)c3c(CN(C)C)c(-c4ccc(NC(=O)NOC)cc4)sc3n(Cc3c(F)cccc3F)c2=O)nn1 | 10.2 ×10⁻⁶ cm/s | 0.013 ×10⁻⁶ cm/s | 17.6 mL/min/kg | 31.3 mL/min/kg | 
10 | C[C@H]1O[C@@H](O[C@H]2[C@@H](O)C[C@H](O[C@H]3[C@@H](O)C[C@H](O[C@H]4CC[C@@]5(C)[C@H](CC[C@@H]6[C@@H]5C[C@@H](O)[C@]5(C)[C@@H](C7=CC(=O)OC7)CC[C@]65O)C4)O[C@@H]3C)O[C@@H]2C)C[C@H](O)[C@@H]1O [DIGOXIN] | 12.8 ×10⁻⁶ cm/s | 0.013 ×10⁻⁶ cm/s |  |  | 
11 | CONC(=O)Nc1ccc(-c2sc3c(c2CN(C)C)c(=O)n(-c2ccc(OC)nn2)c(=O)n3Cc2c(F)cccc2F)cc1 [RELUGOLIX] |  |  | 5.22 mL/min/kg | 29.5 mL/min/kg | Cmax [1]: 544 nM; Papp ([2]; caco-2, 3 h): 13.84 10^-6 cm/s; half-life [3]: 3.88 h; half-life [4]: 3.64 h; Papp ([5]; caco-2, 3 h): 0.007 10^-6 cm/s; logD [14]: 1.24; concentration at 1 h [15]: 429 ng/g; concentration at 1 h [16]: 4.46 ng/g; Cmax [6]: 35.3 nM; AUC(0-t) at 24 h [8]: 0.34 µM·h; Tmax [9]: 0.33 h; concentration at 12 h [17]: 3.2 ng/g; bioavailability [11]: 5.7%; AUC(0-t) at 24 h [12]: 0.234 µM·h; clearance [13]: 78.3 mL/min/kg; concentration at 4 h [18]: 9.2 ng/g
